Experiments:
Details in all cases: 48 h
[1] = system: NOMO1; assay: AUC of viability dose-response curve (% viability x log10 dose units); higher = less sensitive
Method in brief: (§1)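 Viability of medium-adapted leukemia cells was measured by CellTiter-Glo One luminescence after 48 h at 37°C with library compounds in DMSO. Doses were 11 threefold steps from 47 μM to 0.79 nM, in 1536-well plates at 500 or 1000 cells/well. Signals were normalised per plate to DMSO and cell-free wells and fitted with a four-parameter log-logistic model on log10 dose. Area under the curve was integrated by trapezoidal rule, with curves exceeding full viability scaled and failed quality-control curves removed.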

[2] = system: SEM cells; assay: as above
Method in brief: as §1

[3] = system: P12-Ichikawa; assay: as above
Method in brief: as §1

[4] = system: NOMO1; assay: cell viability relative to DMSO control; higher = less cytotoxic
Method in brief: (§2)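 Library compounds in DMSO were pin-dosed in an 11-point threefold series (47 μM to 0.79 nM) onto leukemia cells in 1536-well plates (5 μl). Plates held 500 cells/well of NOMO1 or SEM or 1000 cells/well of P12-Ichikawa, each adapted for at least four passages in each medium. Luminescence was read with CellTiter-Glo One after 48 h at 37°C. Viability means the per-plate percentage relative to DMSO wells, using cell-free wells as background.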

[5] = system: SEM cells; assay: as above
Method in brief: as §2

[6] = system: P12-Ichikawa; assay: as above
Method in brief: as §2

CC(C)C[C@@H](C(=O)N[C@H](C(=O)OC1CCCC1)c1ccccc1)[C@H](O)C(=O)NO
AUC of viability dose-response curve
Details	[1]	[2]	[3]
HPLM + 10% dialyzed FBS	451	454	446
RPMI 5 mM glucose + 10% FBS	449	423	424
RPMI 5 mM glucose + 10% dialyzed FBS	446	399	441

cell viability [%]
Details	[4]	[5]	[6]
HPLM + 10% dialyzed FBS, 0.000781 µM	107	125	109
HPLM + 10% dialyzed FBS, 0.00234 µM	114	119	111
HPLM + 10% dialyzed FBS, 0.00702 µM	112	123	112
HPLM + 10% dialyzed FBS, 0.0211 µM	119	136	114
HPLM + 10% dialyzed FBS, 0.0632 µM	126	120	108
HPLM + 10% dialyzed FBS, 0.19 µM	107	122	108
HPLM + 10% dialyzed FBS, 0.569 µM	104	117	104
HPLM + 10% dialyzed FBS, 1.71 µM	122	89.2	105
HPLM + 10% dialyzed FBS, 5.12 µM	103	105	95.5
HPLM + 10% dialyzed FBS, 15.4 µM	96.2	104	86.8
HPLM + 10% dialyzed FBS, 46.1 µM	33.6	38	59.7
RPMI 5 mM glucose + 10% FBS, 0.000781 µM	111	–	103
RPMI 5 mM glucose + 10% FBS, 0.00234 µM	102	–	119
RPMI 5 mM glucose + 10% FBS, 0.00702 µM	117	–	114
RPMI 5 mM glucose + 10% FBS, 0.0211 µM	117	–	113
RPMI 5 mM glucose + 10% FBS, 0.0632 µM	103	–	107
RPMI 5 mM glucose + 10% FBS, 0.19 µM	107	–	116
RPMI 5 mM glucose + 10% FBS, 0.569 µM	103	–	110
RPMI 5 mM glucose + 10% FBS, 1.71 µM	99.3	–	93.8
RPMI 5 mM glucose + 10% FBS, 5.12 µM	99	–	89.6
RPMI 5 mM glucose + 10% FBS, 15.4 µM	92.6	–	69.8
RPMI 5 mM glucose + 10% FBS, 46.1 µM	13	–	37.1
RPMI 5 mM glucose + 10% dialyzed FBS, 0.000781 µM	114	113	112
RPMI 5 mM glucose + 10% dialyzed FBS, 0.00234 µM	114	113	113
RPMI 5 mM glucose + 10% dialyzed FBS, 0.00702 µM	122	111	115
RPMI 5 mM glucose + 10% dialyzed FBS, 0.0211 µM	122	114	116
RPMI 5 mM glucose + 10% dialyzed FBS, 0.0632 µM	100	102	111
RPMI 5 mM glucose + 10% dialyzed FBS, 0.19 µM	119	106	103
RPMI 5 mM glucose + 10% dialyzed FBS, 0.569 µM	102	101	110
RPMI 5 mM glucose + 10% dialyzed FBS, 1.71 µM	118	72.8	102
RPMI 5 mM glucose + 10% dialyzed FBS, 5.12 µM	106	83.4	89
RPMI 5 mM glucose + 10% dialyzed FBS, 15.4 µM	91.2	65.9	89.6
RPMI 5 mM glucose + 10% dialyzed FBS, 46.1 µM	16	23.2	35.9

CC(C(=O)O)c1ccc(-c2ccccc2)c(F)c1 (stereo not given)
AUC of viability dose-response curve
Details	[1]	[2]	[3]
HPLM + 10% dialyzed FBS	464	442	424
RPMI 5 mM glucose + 10% FBS	476	417	432
RPMI 5 mM glucose + 10% dialyzed FBS	459	447	424

CCN(CC)Cc1ccc2cc(COC(=O)Nc3ccc(C(=O)NO)cc3)ccc2c1
AUC of viability dose-response curve
Details	[1]	[2]	[3]
HPLM + 10% dialyzed FBS	362	333	349
RPMI 5 mM glucose + 10% FBS	372	345	347
RPMI 5 mM glucose + 10% dialyzed FBS	370	339	352

[5], HPLM + 10% dialyzed FBS
Details	cell viability [%]
0.000781 µM	108
0.00234 µM	121
0.00702 µM	127
0.0211 µM	138
0.0632 µM	129
0.19 µM	138
0.569 µM	118
1.71 µM	59.1
5.12 µM	3.07
15.4 µM	2.21
46.1 µM	3.97

CO[C@H]1O[C@@H]2O[C@@]3(C)CC[C@H]4[C@H](C)CC[C@@H]([C@H]1C)[C@@]24OO3
AUC of viability dose-response curve
Details	[1]	[2]	[3]
HPLM + 10% dialyzed FBS	436	429	433
RPMI 5 mM glucose + 10% FBS	433	456	430
RPMI 5 mM glucose + 10% dialyzed FBS	405	451	417

CN1\C(=C(O)/C2=C(C=C(Cl)S2)[S+]1([O-])=O)C(=O)NC3=NC=CC=C3
AUC of viability dose-response curve
Details	HPLM + 10% dialyzed FBS	RPMI 5 mM glucose + 10% FBS	RPMI 5 mM glucose + 10% dialyzed FBS
[1]	459	464	477
[3]	438	472	458

cell viability [%]
Details	[4]	[5]	[6]
HPLM + 10% dialyzed FBS, 0.000781 µM	138	124	125
HPLM + 10% dialyzed FBS, 0.00234 µM	112	130	123
HPLM + 10% dialyzed FBS, 0.00702 µM	116	119	118
HPLM + 10% dialyzed FBS, 0.0211 µM	125	24.6	107
HPLM + 10% dialyzed FBS, 0.0632 µM	119	127	122
HPLM + 10% dialyzed FBS, 0.19 µM	111	114	119
HPLM + 10% dialyzed FBS, 0.569 µM	132	114	113
HPLM + 10% dialyzed FBS, 1.71 µM	103	114	112
HPLM + 10% dialyzed FBS, 5.12 µM	125	112	110
HPLM + 10% dialyzed FBS, 15.4 µM	123	101	104
HPLM + 10% dialyzed FBS, 46.1 µM	108	106	100
RPMI 5 mM glucose + 10% FBS, 0.000781 µM	109	91.4	124
RPMI 5 mM glucose + 10% FBS, 0.00234 µM	108	88	125
RPMI 5 mM glucose + 10% FBS, 0.00702 µM	110	82.7	118
RPMI 5 mM glucose + 10% FBS, 0.0211 µM	105	14.3	116
RPMI 5 mM glucose + 10% FBS, 0.0632 µM	119	88.3	128
RPMI 5 mM glucose + 10% FBS, 0.19 µM	128	88.1	114
RPMI 5 mM glucose + 10% FBS, 0.569 µM	126	68.8	121
RPMI 5 mM glucose + 10% FBS, 1.71 µM	109	85.4	128
RPMI 5 mM glucose + 10% FBS, 5.12 µM	108	99.6	123
RPMI 5 mM glucose + 10% FBS, 15.4 µM	121	87.5	118
RPMI 5 mM glucose + 10% FBS, 46.1 µM	111	74.8	106
RPMI 5 mM glucose + 10% dialyzed FBS, 0.000781 µM	115	125	121
RPMI 5 mM glucose + 10% dialyzed FBS, 0.00234 µM	101	123	119
RPMI 5 mM glucose + 10% dialyzed FBS, 0.00702 µM	126	118	125
RPMI 5 mM glucose + 10% dialyzed FBS, 0.0211 µM	120	25.3	115
RPMI 5 mM glucose + 10% dialyzed FBS, 0.0632 µM	131	123	114
RPMI 5 mM glucose + 10% dialyzed FBS, 0.19 µM	126	134	118
RPMI 5 mM glucose + 10% dialyzed FBS, 0.569 µM	123	104	121
RPMI 5 mM glucose + 10% dialyzed FBS, 1.71 µM	118	102	117
RPMI 5 mM glucose + 10% dialyzed FBS, 5.12 µM	112	103	104
RPMI 5 mM glucose + 10% dialyzed FBS, 15.4 µM	116	111	98.1
RPMI 5 mM glucose + 10% dialyzed FBS, 46.1 µM	114	87.7	96.2

— the supplement of paper PMC11451515
